{
  "source": "patent US5648368A",
  "about": "“Fibrinogen receptor antagonists” (Merck & Co., Inc., priority 1995, dated 1997)",
  "data": [
    {"tested_on": "gel-filtered human platelets", "assay": "ADP-stimulated/ADP-mediated platelet aggregation inhibition (Chronolog aggregometer)", "assay_type": "cell-based", "settings": "Homo sapiens, Platelet; table 2; \"Using the methods previously described\"; read-out: IC50 (μM) Inhibition of Platelet Aggregation", "method": "(§1) Platelet aggregation is measured at 37° C. in a Chronolog aggregometer. The reaction mixture contains gel-filtered human platelets (2×10^8 per ml), fibrinogen (100 micrograms per ml (ug/ml)), Ca^2 + (1 mM), and the compound to be tested. The aggregation is initiated by adding 10 μM ADP 1 minute after the other components are added. The reaction is then allowed to proceed for at least 2 minutes. The extent of inhibition of aggregation is expressed as the percentage of the rate of aggregation observed in the absence of inhibitor. The IC50 is the dose of a particular compound inhibiting aggregation by 50% relative to a control lacking the compound.\n(§2) In addition to the following preparative procedures, several examples of in-vitro bioactivity of compounds within the scope of the present invention are indicated. To illustrate, one test which is used to evaluate fibrinogen receptor antagonist activity is based on evaluation of inhibition of ADP-stimulated platelets. Aggregation requires that fibrinogen bind to and occupy the platelet fibrinogen receptor site. Inhibitors of fibrinogen binding inhibit aggregation. In the ADP-stimulated platelet aggregation assay used to determine inhibition associated with the compounds claimed in the instant invention, human platelets are isolated from fresh blood, collected into acid citrate/dextrose by differential centrifugation followed by gel filtration on Sepharose 2B in divalent ion-free Tyrode's buffer (pH 7.4) containing 2% bovine serum albumin. [drawing 11]", "units": {"IC50": "µM"}, "values": [
      {"molecule": "O=C(O)CCNC(=O)c1ccnc(C(=O)NCCC2CCNCC2)c1", "IC50": 1.6},
      {"molecule": "O=C(O)CCNC(=O)c1cc(C(=O)NCCC2CCNCC2)ccn1", "IC50": 1.1},
      {"molecule": "CCCCS(=O)(=O)N[C@@H](CNC(=O)c1cncc(C(=O)NCCC2CCNCC2)c1)C(=O)O", "IC50": 0.11},
      {"molecule": "Cc1ccc(C(=O)NCCC2CCNCC2)cc1C(=O)NCCC(=O)O", "IC50": 0.45},
      {"molecule": "CCCCS(=O)(=O)N[C@@H](CNC(=O)c1cc(C(=O)NCCC2CCNCC2)ccc1C)C(=O)O", "IC50": 0.15},
      {"molecule": "CCCCS(=O)(=O)N[C@@H](CNC(=O)c1cccc(C(=O)N(C)CCC2CCNCC2)c1)C(=O)O", "IC50": 0.023},
      {"molecule": "CCCCS(=O)(=O)N[C@@H](CNC(=O)c1ccc(C(=O)NCC2CCNCC2)cc1)C(=O)O", "IC50": 0.14},
      {"molecule": "CCCCS(=O)(=O)N[C@@H](CNC(=O)c1ccc(C(=O)NCCC2CCNCC2)cc1)C(=O)O", "IC50": 0.02},
      {"molecule": "O=C(NCCC1CCNCC1)c1ccc(C(=O)NC[C@H](NS(=O)(=O)c2cccnc2)C(=O)O)cc1", "IC50": 0.017},
      {"molecule": "O=C(NCCCC1CCNCC1)c1ccc(C(=O)NC[C@H](NS(=O)(=O)c2cccnc2)C(=O)O)cc1", "IC50": 0.052},
      {"molecule": "O=C(NC[C@H](NS(=O)(=O)c1ccccc1)C(=O)O)c1ccc(NCCC2CCNCC2)cc1", "IC50": 0.009},
      {"molecule": "O=C(NC[C@H](NS(=O)(=O)c1ccccc1)C(=O)O)c1ccc(S(=O)(=O)CCC2CCNCC2)cc1", "IC50": 0.019},
      {"molecule": "O=C(NC[C@H](NS(=O)(=O)c1ccccc1)C(=O)O)c1ccc(OCCC2CNC2)cc1", "IC50": 0.017},
      {"molecule": "O=C(NC[C@H](NS(=O)(=O)c1ccccc1)C(=O)O)c1ccc(OCCCC2CNC2)cc1", "IC50": 0.01},
      {"molecule": "O=C(NC[C@H](NS(=O)(=O)c1cccnc1)C(=O)O)c1ccc(OCCC2CCNCC2)cc1", "IC50": 0.009},
      {"molecule": "O=C(NC[C@H](NS(=O)(=O)c1ccccc1)C(=O)O)c1cccc(OCCCC2CCNCC2)c1", "IC50": 0.056},
      {"molecule": "O=C(NC[C@H](NS(=O)(=O)c1ccccc1)C(=O)O)c1ccc(OCCN2CCNCC2)cc1", "IC50": 0.023}
    ]},
    {"tested_on": "gel-filtered human platelets", "assay": "ADP-stimulated/ADP-mediated platelet aggregation inhibition (Chronolog aggregometer)", "assay_type": "cell-based", "settings": "Platelet; gel-filtered human platelets 2×10^8 per ml, fibrinogen 100 ug/ml, Ca2+ 1 mM, 10 μM ADP, 37° C.; table 1; read-out: IC50 for inhibition of ADP-mediated platelet aggregation", "method": "as §1, §2", "units": {"IC50": "µM"}, "values": [
      {"molecule": "O=C(O)CCNC(=O)CCc1cccc(CC2CCNCC2)c1", "note": "[3-[3-(Piperidin-4-ylmethyl)phenyl]propionyl-β-alanine]", "IC50": 170},
      {"molecule": "CC(CC(=O)NCCC(=O)O)c1ccc(C2=CCNCC2)cc1", "note": "(stereo not drawn) [3-[4-(1,2,5,6-Tetrahydropyridin-4-yl)phenyl]butyryl-β-alanine]", "IC50": 1.3},
      {"molecule": "O=C(O)CCNC(=O)Cc1cccc(OCC2CCNCC2)c1", "note": "[3-[(4-Piperidinyl)methyloxy]-N-(2-carboxyethyl)phenyl Acetamide]", "IC50": 56},
      {"molecule": "CCCCS(=O)(=O)N[C@@H](CNC(=O)CCc1ccc(C2=CCNCC2)cc1)C(=O)O", "note": "[4-(1,2,5,6-Tetrahydropyridin-4-yl)phenyl-3-propionyl-[2(S)-n-butylsulfonylamino]-β-alanine]", "IC50": 0.022},
      {"molecule": "O=C(O)CCNC(=O)CCc1ccc(C2=CCNCC2)cc1", "note": "[4-(1,2,5,6-Tetrahydropyridin-4-yl)phenyl-3-propionyl-β-alanine]", "IC50": 1.7},
      {"molecule": "CCCCS(=O)(=O)N[C@@H](CNC(=O)CCc1ccc(C2CCNCC2)cc1)C(=O)O", "note": "[4-(Piperidin-4-yl)phenyl-3-propionyl-[2(S)-n-butyl-sulfonylamino]-β-alanine]", "IC50": 0.1},
      {"molecule": "O=C(O)CCNC(=O)CCc1ccc(C2CCNCC2)cc1", "note": "[4-(Piperidin-4-yl)phenyl-3-propionyl-β-alanine]", "IC50": 11},
      {"molecule": "O=C(NC[C@H](NS(=O)(=O)c1ccccc1)C(=O)O)c1ccc(OCCC2CCNCC2)cc1", "note": "[4-[2-(Piperidin-4-yl)ethoxy]benzoyl-2(S)-phenylsulfonylamino-β-alanine]", "IC50": 0.014}
    ]},
    {"tested_on": "gel-filtered human platelets", "assay": "ADP-stimulated/ADP-mediated platelet aggregation inhibition (Chronolog aggregometer)", "assay_type": "cell-based", "settings": "gel-filtered human platelets 2×10^8 per ml, fibrinogen 100 ug/ml, Ca2+ 1 mM, 10 μM ADP, 37° C.; table 1; read-out: IC50 for inhibition of ADP-mediated platelet aggregation", "method": "as §1, §2", "units": {"IC50": "µM"}, "values": [
      {"molecule": "O=C(O)CC(CCc1c[nH]c2ccccc12)NC(=O)Cc1cccc(OCC2CCNCC2)c1", "note": "(centres unmarked) [3-[(4-Piperidinyl)methyloxy]-N-[3-(2-indol-3-yl)ethyl Propionic Acid]-phenyl Acetamide]", "IC50": 5.2},
      {"molecule": "CCCCS(=O)(=O)N[C@@H](Cc1ccc(NC(=O)CCCC2CCNCC2)cc1)C(=O)O", "note": "[4-(4-Piperidin-4-yl)-N-3[2(S)-n-butylsulfonylaminopropionic acid]-phenylbutyramide]", "IC50": 0.095}
    ]},
    {"tested_on": "cell attachment-promoting effects of fibronectin and vitronectin", "assay": "not given", "settings": "background statement; cited from earlier work", "values": [
      {"molecule": "arginine-glycine-aspartic acid [Arg-Gly-Asp]", "activity of the tripeptide Arg-Gly-Asp": "low activity"}
    ]},
    {"tested_on": "gpIIb/IIIa complex", "assay": "not given", "settings": "snake venom polypeptides; literature; cited from earlier work", "values": [
      {"molecule": "Echistatin", "affinity for the gpIIb/IIIa complex": "high affinity"}
    ]}
  ]
}
